Assay results reported in the NIST ThermoML archive (doi:10.1021/je2013704).

Assay: mn = molality of the nth substance listed, in mol/kg
Settings: Liquid, Vibrating tube method

[I-].[K+] [potassium iodide] + O
mass density [kg/m3]
Settings | 283.15 K | 298.12 K | 323.07 K | 348.04 K | 372.99 K | 397.97 K | 422.94 K | 447.94 K | 472.96 K
1050 kPa, m1 = 0.669 | 1078.98 | 1074.75 | 1064.04 | 1049.72 | 1032.6 | 1012.71 | 990.31 | 965.35 | –
1050 kPa, m1 = 0.9 | – | 1100.27 | 1088.99 | 1074.24 | 1056.8 | 1036.96 | 1014.85 | 990.56 | –
1050 kPa, m1 = 1.063 | 1122.95 | 1117.9 | 1106.19 | 1091.2 | 1073.46 | 1053.24 | 1030.64 | 1005.63 | –
10020 kPa, m1 = 0.669 | 1083.16 | 1078.81 | 1067.95 | 1053.73 | 1036.79 | 1017.19 | 995.34 | 970.94 | 944.19
10020 kPa, m1 = 0.9 | – | 1104.27 | 1092.94 | 1078.29 | 1061.02 | 1041.47 | 1019.62 | 996.18 | –
10020 kPa, m1 = 1.063 | 1127.11 | 1121.98 | 1110.17 | 1095.23 | 1077.72 | 1057.79 | 1035.74 | 1011.23 | 984.84
19970 kPa, m1 = 0.669 | 1087.75 | 1083.04 | 1072.19 | 1057.99 | 1041.3 | 1022.06 | 1000.61 | 976.95 | 950.96
19970 kPa, m1 = 0.9 | – | 1108.67 | 1097.21 | 1082.62 | 1065.55 | 1046.32 | 1024.97 | 1002.22 | –
19970 kPa, m1 = 1.063 | 1131.7 | 1126.32 | 1114.52 | 1099.65 | 1082.29 | 1062.77 | 1041.07 | 1017.26 | 991.38
29900 kPa, m1 = 0.669 | 1092.18 | 1087.37 | 1076.42 | 1062.23 | 1045.73 | 1026.71 | 1005.73 | 982.65 | 957.4
29900 kPa, m1 = 0.9 | – | 1112.93 | 1101.41 | 1086.89 | 1070.01 | 1050.95 | 1030.16 | 1007.94 | –
29900 kPa, m1 = 1.063 | 1136.2 | 1130.67 | 1118.76 | 1103.95 | 1086.83 | 1067.47 | 1046.25 | 1022.96 | 997.97
39830 kPa, m1 = 0.669 | 1096.51 | 1091.56 | 1080.45 | 1066.38 | 1050.01 | 1031.29 | 1010.72 | 988.1 | 963.57
39830 kPa, m1 = 0.9 | – | 1117.15 | 1105.46 | 1091.06 | 1074.32 | 1055.56 | 1035.28 | 1013.36 | –
39830 kPa, m1 = 1.063 | 1140.54 | 1134.96 | 1122.89 | 1108.16 | 1091.17 | 1072.16 | 1051.3 | 1028.47 | 1004.2
49760 kPa, m1 = 0.669 | 1100.74 | 1095.69 | 1084.42 | 1070.32 | 1054.18 | 1035.78 | 1015.55 | 993.34 | 969.44
49760 kPa, m1 = 0.9 | – | 1121.3 | 1109.41 | 1095.03 | 1078.51 | 1060.02 | 1040.03 | 1018.68 | –
49760 kPa, m1 = 1.063 | 1144.78 | 1139.11 | 1126.88 | 1112.21 | 1095.44 | 1076.71 | 1056.19 | 1033.81 | 1010.14
59680 kPa, m1 = 0.669 | 1104.92 | 1099.67 | 1088.3 | 1074.35 | 1058.24 | 1040.1 | 1020.17 | 998.49 | 975.11
59680 kPa, m1 = 0.9 | – | 1125.31 | 1113.37 | 1099.04 | 1082.5 | 1064.32 | 1044.78 | 1023.8 | –
59680 kPa, m1 = 1.063 | 1149.02 | 1143.14 | 1130.86 | 1116.3 | 1099.61 | 1081.09 | 1060.87 | 1038.97 | 1015.81
68120 kPa, m1 = 0.669 | 1108.52 | 1103 | 1091.53 | 1077.66 | 1061.64 | 1043.65 | 1024 | 1002.64 | 979.68
68120 kPa, m1 = 0.9 | – | 1128.62 | 1116.58 | 1102.03 | 1085.89 | 1067.94 | 1048.68 | 1027.98 | –
68120 kPa, m1 = 1.063 | 1152.59 | 1146.49 | 1134.11 | 1119.62 | 1103.03 | 1084.7 | 1064.81 | 1043.19 | 1020.4
